This passage reports IC50, Activity and inhibition results from ChEMBL document CHEMBL5131396, “Structure-activity relationship for the folding intermediate-selective inhibition of DYRK1A” (Eur J Med Chem, 2022).

The source made the active and inactive calls. No cut-off for these calls is given here.

For data set [1], the target named is T1, Dual specificity tyrosine-phosphorylation-regulated kinase 1A (Homo sapiens, UniProt Q13627). Kind of data set: Inhibition of FLAG-tagged full-length human recombinant DYRK1A (127 to 485 residues) expressed in Escherichia coli assessed as reduction in autophosphorylation at Ser97 residue by Western blot analysis. On the technique in general: In western blotting, separated proteins are transferred to a membrane and probed.

For data set [2], the target named is T1, Dual specificity tyrosine-phosphorylation-regulated kinase 1A. Kind of data set: Induction of degradation of endogenous FLAG-tagged full-length human recombinant DYRK1A (127 to 485 residues) expressed in Escherichia coli in HEK293 cells assessed as decrease in protein level measured after 4 days by Western blot analysis. Particulars: dose <= 8.0 µM, time 4.0 day, DDE = dose-dependent effect.

In the next data set the test system is HEK293. Kind of data set: Cytotoxicity against HEK293 cells up to 8 uM. In kind it is toxicity, cell-based. Particulars: human, hek293, 8 µM.
Data set [3] has as its target Rho-associated protein kinase 1 (Homo sapiens) (UniProt Q13464). Put plainly: Inhibition of ROCK1 in HEK293 cells at 1 to 2 uM measured after 4 days by Western blot analysis. In kind it is cell-based. Particulars: dose 1-2 µM, time 4.0 day.
The target of data set [4] is T1, Dual specificity tyrosine-phosphorylation-regulated kinase 1A. Put plainly: Inhibition of FLAG-tagged full-length human recombinant DYRK1A (127 to 485 residues) expressed in Escherichia coli assessed as reduction in phosphorylated tyrosine level by Western blot analysis. Particulars: dose <= 32.0 µM, DDE = dose-dependent effect.
Data set [5] has as its target Serine/threonine-protein kinase D1 (Homo sapiens) (UniProt Q15139). Kind of data set: Inhibition of PKD1 in HEK293 cells at 1 to 2 uM measured after 4 days by Western blot analysis. Particulars: dose 1-2 µM, time 4.0 day.
Data set [6] shares this target. Kind of data set: Inhibition of recombinant PKD1 in HEK293 cells at 32 uM using DYRKtide peptide as substrate incubated for 45 mins in presence of ATP by Kinase-Glo Luminescent kinase assay. On the technique in general: Kinase-Glo reads ATP consumption through a luciferase reaction.
The target in data set [7] is T1, Dual specificity tyrosine-phosphorylation-regulated kinase 1A. Put plainly: Inhibition of FLAG-tagged full-length human recombinant DYRK1A (127 to 485 residues) expressed in Escherichia coli assessed as reduction in TAU intermolecular phosphorylation incubated for 30 mins by Western blot analysis.

Serine/threonine-protein kinase D1 (Homo sapiens), sequence (Q15139 whole entry, looked up): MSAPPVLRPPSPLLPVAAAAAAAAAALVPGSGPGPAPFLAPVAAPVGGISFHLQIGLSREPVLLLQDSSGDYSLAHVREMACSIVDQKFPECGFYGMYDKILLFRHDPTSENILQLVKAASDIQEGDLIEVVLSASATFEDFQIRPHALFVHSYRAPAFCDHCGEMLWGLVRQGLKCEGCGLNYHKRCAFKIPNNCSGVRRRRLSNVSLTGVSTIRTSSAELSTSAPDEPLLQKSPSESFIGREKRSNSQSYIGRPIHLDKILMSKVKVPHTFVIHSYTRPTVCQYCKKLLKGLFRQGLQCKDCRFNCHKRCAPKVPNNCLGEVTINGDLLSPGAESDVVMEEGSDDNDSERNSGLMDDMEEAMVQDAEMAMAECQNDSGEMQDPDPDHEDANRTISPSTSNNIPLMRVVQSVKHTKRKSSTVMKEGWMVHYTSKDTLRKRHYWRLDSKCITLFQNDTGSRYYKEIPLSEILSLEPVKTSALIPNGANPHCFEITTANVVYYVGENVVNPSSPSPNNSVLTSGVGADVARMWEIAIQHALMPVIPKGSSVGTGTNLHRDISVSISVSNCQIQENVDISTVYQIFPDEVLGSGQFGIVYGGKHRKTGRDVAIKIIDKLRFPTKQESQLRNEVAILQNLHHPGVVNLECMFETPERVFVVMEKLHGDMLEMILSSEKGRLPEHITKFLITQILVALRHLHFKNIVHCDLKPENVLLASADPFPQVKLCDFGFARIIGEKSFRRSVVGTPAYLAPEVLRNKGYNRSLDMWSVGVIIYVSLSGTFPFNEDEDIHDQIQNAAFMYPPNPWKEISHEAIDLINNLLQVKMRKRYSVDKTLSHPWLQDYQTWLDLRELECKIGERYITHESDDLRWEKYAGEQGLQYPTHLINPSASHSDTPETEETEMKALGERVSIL
Rho-associated protein kinase 1 (Homo sapiens), sequence (Q13464 2-1354 limits assumed): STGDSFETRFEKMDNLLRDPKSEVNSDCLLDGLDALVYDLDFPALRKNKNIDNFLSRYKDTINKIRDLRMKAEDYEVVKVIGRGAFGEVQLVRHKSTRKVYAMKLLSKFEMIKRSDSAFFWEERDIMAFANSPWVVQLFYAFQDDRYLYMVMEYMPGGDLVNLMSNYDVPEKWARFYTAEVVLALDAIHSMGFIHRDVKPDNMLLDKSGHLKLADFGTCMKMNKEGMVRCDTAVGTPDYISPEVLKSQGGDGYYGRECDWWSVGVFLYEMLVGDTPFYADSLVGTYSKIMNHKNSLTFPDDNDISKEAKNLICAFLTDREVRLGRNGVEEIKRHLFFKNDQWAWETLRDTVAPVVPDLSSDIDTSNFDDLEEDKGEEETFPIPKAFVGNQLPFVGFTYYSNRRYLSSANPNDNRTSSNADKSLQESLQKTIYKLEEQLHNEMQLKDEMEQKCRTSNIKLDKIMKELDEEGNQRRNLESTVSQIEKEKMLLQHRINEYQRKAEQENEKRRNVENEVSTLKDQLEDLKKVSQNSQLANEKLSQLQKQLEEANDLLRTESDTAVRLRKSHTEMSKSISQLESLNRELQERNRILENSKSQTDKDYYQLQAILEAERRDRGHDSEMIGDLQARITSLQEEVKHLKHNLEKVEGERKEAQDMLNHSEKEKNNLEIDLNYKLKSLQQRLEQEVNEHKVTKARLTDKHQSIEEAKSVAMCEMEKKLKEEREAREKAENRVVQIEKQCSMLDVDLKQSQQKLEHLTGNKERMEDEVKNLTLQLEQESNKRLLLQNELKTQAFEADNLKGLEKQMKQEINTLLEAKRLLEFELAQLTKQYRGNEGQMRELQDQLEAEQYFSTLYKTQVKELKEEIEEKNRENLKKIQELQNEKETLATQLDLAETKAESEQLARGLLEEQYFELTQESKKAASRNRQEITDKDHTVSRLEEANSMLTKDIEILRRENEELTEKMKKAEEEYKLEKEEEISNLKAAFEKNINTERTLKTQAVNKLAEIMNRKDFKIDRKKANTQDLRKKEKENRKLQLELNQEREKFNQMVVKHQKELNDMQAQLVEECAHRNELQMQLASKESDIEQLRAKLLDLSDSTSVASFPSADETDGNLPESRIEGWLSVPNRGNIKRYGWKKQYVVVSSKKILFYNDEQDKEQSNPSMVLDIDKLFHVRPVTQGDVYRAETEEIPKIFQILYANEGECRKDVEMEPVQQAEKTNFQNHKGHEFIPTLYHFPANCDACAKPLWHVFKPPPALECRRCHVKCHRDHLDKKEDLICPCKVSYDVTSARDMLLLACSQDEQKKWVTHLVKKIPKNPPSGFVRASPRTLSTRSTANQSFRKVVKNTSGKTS

The IC50 is the midpoint of a concentration-inhibition curve. On to `COc1ccc(/C=C2\SC(=S)NC2=O)cc1/C=C/C1CCCCC1`, for which the IC50 in data set [1] is more than 32 µM.
As to `COc1ccc(/C=C2\SC(=S)NC2=O)cc1/C=C/C(C)(C)C`, the 50% inhibitory concentration (IC50) in data set [1] was more than 32 µM.
As to `COc1ccc(/C=C2\SC(=S)NC2=O)cc1C#C[Si](C)(c1ccccc1)c1ccccc1`, the Activity result was “Dde” in data set [2] and “Non-Toxic” in the data set on HEK293. Besides, the inhibition entry in data set [3], in data set [5] and in data set [6] was “Active” in each case. Moreover, the inhibition entry in data set [4] was “Dde”. Also, the IC50 in data set [1] was found to be 0.53 µM.
For the compound `COc1ccc(/C=C2\SC(=S)NC2=O)cc1C#C[Si](C)(C)C`, the Activity result with HEK293 is “Non-Toxic”. For the same compound, the inhibition result in data set [4] is “Dde”. Moreover, in data set [6], the inhibition entry is “Active”.
As to `COc1ccc(/C=C2\SC(=S)NC2=O)cc1/C=C/[Si](C)(C)C`, the IC50 in data set [1] was more than 32 µM.
In the case of `CCOc1cc(/C=C2\SC(=S)NC2=O)ccc1O`, the inhibition entry in data set [7] was “Active”.
